How the values were obtained:
[1] = target: T1, PDE4D5 (Homo sapiens, UniProt Q08499); experiment: PDE assay, activation of full-length human PDE4D5 long form ([3H]cAMP radio-assay); format: biochemical; conditions: for activation at 30 µM: 30 μM test compound, mean % increase in counts over basal activity
T1 construct: Using Full-Length Human PDE4 Isoforms: Long Forms PDE4D5, PDE4C3, PDE4B1 and Short Form PDE4B2; made in house; cytosol fraction of the cell lysate, not purified
Source text: Experiment 1: Measurement of Modulation of Enzyme Activity by PDE4 Long Form Activators of the Present Invention Using Full-Length Human PDE4 Isoforms: Long Forms PDE4D5, PDE4C3, PDE4B1 and Short Form PDE4B2
(Marchmont, R. J. and Houslay, M. D. Biochem. J. 187: 381-92, 1980)
For transient transfection of exogenous PDE4 long isoforms, HEK 293 cells were transfected with pcDNA3.1 or pDEST™ PDE4 expression vectors using Lipofectamine LTX/Plus reagent (Invitrogen) as outlined by the manufacturer.
Where stable cell lines were generated the clonal isolates were expanded to obtain cell lines that stably expressed the full-length human PDE4 long isoforms and the full length human PDE4B2 short isoform. These were called the HEK-PDE4D5, HEK-PDE4B1 and HEK-PDE4B2 cell lines, respectively.
HEK-PDE4D5 cells were seeded out in 100 mm plates and incubated at 37° C. in an atmosphere of 5% CO2, 95% air. Cell lysates were prepared using KHEM buffer [50 mM KCl, 10 mM EGTA, 50 mM HEPES (pH 7.2), 1.92 mM MgCl2].
To prepare the cell lysates, the 100 mm plates containing the cells were placed on ice and washed with ice-cold PBS (phosphate buffered saline, pH 7.4). KHEM buffer (500 μl) was added to the cells. Cells were then scraped off the plate and triturated using a needle (BD Microlance™ 0.8, 40 mm). The lysed cells were then centrifuged at 2000 rpm for 10 minutes to remove cell debris and the supernatant (cell lysate containing recombinant PDE4D5) was transferred to a fresh tube and kept on ice.
The cell lysate containing recombinant PDE4D5 was transferred into a centrifuge tube and placed into an ultracentrifuge (BECKMAN COULTER) and spun at high speed (100,000 g) for 30 minutes at 4° C. The cytosol fraction was then collected and its protein amount determined using a BCA protein assay.
PDE assays were performed in thin walled V-bottomed 96-well plates. The assays were performed at a final concentration of 10 mM Tris/5 mM MgCl2 μlus PDE4D5 cell lysate cytosol fraction, containing over-expressed PDE4D5, with and without test compound. The lysate/compound mix were incubated together for 15 min at room temperature on an orbital shaker prior to addition of [^3H] cAMP (final concentration 1 μM [^3H] cAMP; Perkin Elmer) to a final volume of 50 μl per reaction. The reactions were then incubated for 10 minutes at 30° C., terminated by heating for 2 min at 95° C. and allowed to cool. Snake venom (12.5 μl of 1 mg/ml; Crotalus atrox, Sigma) was then added and the plates were agitated and incubated for a further 15 minutes at 30° C. Dowex ion exchange resin (Sigma, chloride form, 200-400 mesh; 200 μl; prepared as a 1:1 Dowex: water stock, thoroughly re-suspended and diluted 2:1 with ethanol) was then added to each well and the plates incubated for 15 min at room temperature on an orbital shaker ensuring sufficient agitation for resin suspension (550 RPM). The reaction mixture was then transferred to a 96 well filter plate (Millipore; […] pore size) and filtered into a receiving 96-well plate to remove the dowex suspension. 30 μL of the filtered solution was then transferred to the wells of an Opti-plate (Perkin Elmer) 96 well assay plate and 120 μl of Microscint 40 scintillation fluid was added. The plate was then placed on an orbital shaker for 10 min at high speed (900 RPM) to mix the sample with scintillation fluid prior to quantitation using a plate based scintillation counter (Top-Count).
The % increase in counts in the presence of test compound at a particular concentration indicates the % increase in enzyme activity at that concentration.

[2] = tested on: m-IMCD3 cells; experiment: Inhibition of PGE2-stimulated in vitro cyst formation in 3D culture of m-IMCD3 cells; format: cell-based, mouse; conditions: Mus musculus, mIMCD3, 144 h; 10 μM test compound; mean cyst area (%) compared to 100% for (DMSO + PGE2) and 0% for DMSO control; 100 nM PGE2; 6 days; read-out: % Cyst area after incubation with 10 μM test compound
Method in brief: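 Mouse m-IMCD3 cells grown in 3D collagen I/Matrigel gels. From 18-24 h after plating, compound (0.1% DMSO) plus 100 nM PGE2 were added and replenished at 2-3 days. After 6 days, imaging gave mean cyst area, scaled to 100% for DMSO+PGE2 and 0% for DMSO alone.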

T1 sequence (Q08499 1-745 isoform Q08499-6): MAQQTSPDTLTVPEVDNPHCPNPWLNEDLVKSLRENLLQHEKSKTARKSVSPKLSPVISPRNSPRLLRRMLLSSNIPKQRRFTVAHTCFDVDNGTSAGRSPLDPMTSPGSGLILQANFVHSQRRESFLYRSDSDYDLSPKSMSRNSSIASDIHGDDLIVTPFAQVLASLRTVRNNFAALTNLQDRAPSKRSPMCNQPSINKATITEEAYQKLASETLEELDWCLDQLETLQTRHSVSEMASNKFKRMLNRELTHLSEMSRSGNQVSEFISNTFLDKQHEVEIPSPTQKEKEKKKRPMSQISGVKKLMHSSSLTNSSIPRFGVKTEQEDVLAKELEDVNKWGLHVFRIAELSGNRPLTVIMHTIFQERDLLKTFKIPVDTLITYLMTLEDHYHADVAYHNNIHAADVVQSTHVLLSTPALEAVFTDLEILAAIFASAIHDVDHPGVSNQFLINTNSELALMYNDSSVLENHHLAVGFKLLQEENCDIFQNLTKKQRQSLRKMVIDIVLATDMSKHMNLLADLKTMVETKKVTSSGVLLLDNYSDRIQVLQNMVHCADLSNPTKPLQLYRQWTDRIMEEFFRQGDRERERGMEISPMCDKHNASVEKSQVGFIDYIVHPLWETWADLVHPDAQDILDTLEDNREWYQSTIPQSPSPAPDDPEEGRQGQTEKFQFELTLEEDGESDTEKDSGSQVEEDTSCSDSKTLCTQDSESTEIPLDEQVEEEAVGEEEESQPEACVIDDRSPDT

| activation at 30 µM [1] [%] | Activation of PDE4D5 (FIG. 1) ([1]; concentration response, result in words) | SMILES | activity at 10 µM [2] [%] |
| --- | --- | --- | --- |
| 102 | – | O=C(N[C@H]1CCOc2ccccc21)c1ccc2nc(-c3cncc(C(F)(F)F)c3)sc2c1 [Example 47, (S)-N-(chroman-4-yl)-2-(5-(trifluoromethyl)pyridin-3-yl)benzo[d]thiazole-6-carboxamide] | 12 |
| 110 | – | O=C(N[C@H]1CCOc2ccccc21)c1ccc2nc(-c3cncc(C(F)F)c3)sc2c1 [Example 63, (S)-N-(chroman-4-yl)-2-(5-(difluoromethyl)pyridin-3-yl)benzo[d]thiazole-6-carboxamide] | 16 |
| 135 | – | O=C(N[C@H]1CCOc2ccccc21)c1ccc2nc(-c3cncc(C4CC4)c3)sc2c1 [Example 48, (S)-N-(chroman-4-yl)-2-(5-cyclopropylpyridin-3-yl)benzo[d]thiazole-6-carboxamide] | 14 |
| 64 | – | O=C(N[C@H]1CCOc2ccccc21)c1ccc2nc(-c3ccc(C(F)F)nc3)sc2c1 [Example 64, (S)-N-(chroman-4-yl)-2-(6-(difluoromethyl)pyridin-3-yl)benzo[d]thiazole-6-carboxamide] | – |
| 107 | – | Cc1cc(-c2nc3ccc(C(=O)N[C@H]4CCOc5ccccc54)cc3s2)ccn1 [Example 56, (S)-N-(chroman-4-yl)-2-(2-methylpyridin-4-yl)benzo[d]thiazole-6-carboxamide] | 10 |
| 142 | – | Cc1ccc(-c2nc3ccc(C(=O)N[C@@H]4CCc5ccccc54)cc3s2)cn1 [Example 18, (R)-N-(2,3-dihydro-1H-inden-1-yl)-2-(6-methylpyridin-3-yl)benzo[d]thiazole-6-carboxamide] | – |
| 88 | – | Cc1ccc(-c2nc3ccc(C(=O)N[C@H]4CCOc5ccccc54)cc3s2)c(C)n1 [Example 26, (S)-N-(chroman-4-yl)-2-(2,6-dimethylpyridin-3-yl)benzo[d]thiazole-6-carboxamide] | – |
| 131 | – | CC(C)c1cncc(-c2nc3ccc(C(=O)N[C@H]4CCOc5ccccc54)cc3s2)c1 [Example 49, (S)-N-(chroman-4-yl)-2-(5-isopropylpyridin-3-yl)benzo[d]thiazole-6-carboxamide] | 9 |
| 49 | – | Cc1cnccc1-c1nc2ccc(C(=O)N[C@H]3CCOc4ccccc43)cc2s1 [Example 55, (S)-N-(chroman-4-yl)-2-(3-methylpyridin-4-yl)benzo[d]thiazole-6-carboxamide] | 18 |
| 171 | – | Cc1ccc(-c2nc3ccc(C(=O)N[C@H]4CCc5ccccc54)cc3s2)cn1 [Example 17, (S)-N-(2,3-dihydro-1H-inden-1-yl)-2-(6-methylpyridin-3-yl)benzo[d]thiazole-6-carboxamide] | – |
| 37 | – | O=C(N[C@H]1CCOc2ccccc21)c1ccc2nc(-c3ccc(C(F)(F)F)nc3)sc2c1 [Example 25, (S)-N-(chroman-4-yl)-2-(6-(trifluoromethyl)pyridin-3-yl)benzo[d]thiazole-6-carboxamide] | 23 |
| 102 | – | Cc1cncc(-c2nc3ccc(C(=O)N[C@H]4CCOc5ccccc54)cc3s2)c1 [Example 45, (S)-N-(chroman-4-yl)-2-(5-methylpyridin-3-yl)benzo[d]thiazole-6-carboxamide] | – |
| 154 | – | O=C(N[C@H]1CCOc2ccccc21)c1ccc2nc(-c3ccc(C4CC4)nc3)sc2c1 [Example 27, (S)-N-(chroman-4-yl)-2-(6-cyclopropylpyridin-3-yl)benzo[d]thiazole-6-carboxamide] | – |

The remaining lines, values behind:

| SMILES | activation at 30 µM [1] [%] | Activation of PDE4D5 (FIG. 1) ([1]; concentration response, result in words) | activity at 10 µM [2] [%] |
| --- | --- | --- | --- |
| Cc1ncccc1-c1nc2ccc(C(=O)NCc3ccc(Cl)cc3)cc2s1 [Example 1, N-(4-chlorobenzyl)-2-(2-methylpyridin-3-yl)benzo[d]thiazole-6-carboxamide] | 48 | – | -7 |
| Cc1cncc(-c2nc3ccc(C(=O)N[C@H]4CCCc5ccccc54)cc3s2)c1 [Example 44, (S)-2-(5-methylpyridin-3-yl)-N-(1,2,3,4-tetrahydronaphthalen-1-yl)benzo[d]thiazole-6-carboxamide] | 87 | – | – |
| Cc1nn(C)cc1-c1nc2ccc(C(=O)N[C@H]3CCOc4ccccc43)cc2s1 [Example 61, (S)-N-(chroman-4-yl)-2-(1,3-dimethyl-1H-pyrazol-4-yl)benzo[d]thiazole-6-carboxamide] | 124 | – | 8 |
| COc1cccc(CNC(=O)c2ccc3nc(-c4ccc(C)nc4)sc3c2)c1 [Example 16, N-(3-methoxybenzyl)-2-(6-methylpyridin-3-yl)benzo[d]thiazole-6-carboxamide] | 64 | – | – |
| Cc1ccncc1-c1nc2cc(C(=O)N[C@H]3CCOc4ccccc43)ccc2s1 [Example 66, (S)-N-(chroman-4-yl)-2-(4-methylpyridin-3-yl)benzo[d]thiazole-5-carboxamide] | 78 | concentration-dependent activation | – |
| Cc1nn(C)c(C)c1-c1nc2ccc(C(=O)N[C@H]3CCOc4ccccc43)cc2s1 [Example 59, (S)-N-(chroman-4-yl)-2-(1,3,5-trimethyl-1H-pyrazol-4-yl)benzo[d]thiazoIe-6-carboxamide] | 77 | – | 20 |
| Cc1ccc(-c2nc3ccc(C(=O)NCc4ccc(F)cc4)cc3s2)cn1 [Example 12, N-(4-fluorobenzyl)-2-(6-methylpyridin-3-yl)benzo[d]thiazole-6-carboxamide] | 58 | – | – |
| Cc1ccc(-c2nc3ccc(C(=O)NCc4cccc(Cl)c4)cc3s2)cn1 [Example 14, N-(3-chlorobenzyl)-2-(6-methylpyridin-3-yl)benzo[d]thiazole-6-carboxamide] | 120 | – | – |
| Cc1ccc(-c2nc3ccc(C(=O)NCc4cccc(F)c4)cc3s2)cn1 [Example 15, N-(3-fluorobenzyl)-2-(6-methylpyridin-3-yl)benzo[d]thiazole-6-carboxamide] | 99 | – | – |
| Cc1ccc(-c2nc3ccc(C(=O)N[C@@H]4c5ccccc5C[C@H]4O)cc3s2)cn1 [Example 21, N-((1R,2R)-2-hydroxy-2,3-dihydro-1H-inden-1-yl)-2-(6-methylpyridin-3-yl)benzo[d]thiazole-6-carboxamide] | 193 | – | – |
| Cc1ccc(-c2nc3ccc(C(=O)NCc4ccccc4)cc3s2)cn1 [Example 10, N-benzyl-2-(6-methylpyridin-3-yl)benzo[d]thiazole-6-carboxamide] | 78 | – | – |
| Cc1ccc(-c2nc3ccc(C(=O)N[C@H]4c5ccccc5C[C@H]4O)cc3s2)cn1 [Example 19, N-((1S,2R)-2-hydroxy-2,3-dihydro-1H-inden-1-yl)-2-(6-methylpyridin-3-yl)benzo[d]thiazole-6-carboxamide] | 73 | – | – |
| Cc1ccc(-c2nc3ccc(C(=O)NC4CCCC4)cc3s2)cn1 [Example 22, N-cyclopentyl-2-(6-methylpyridin-3-yl)benzo[d]thiazole-6-carboxamide] | 39 | – | – |

— patent publication US20240150339A1, “Compounds and Their Use as PDE4 Activators” (Mironid Limited, priority 2021, published 2024)
